# Laboratory results published in the supplement of paper PMC10307832.
# Assays:
# Test in all cases: relative viability (nuclei count vs DMSO), 5 days (fraction); higher = more cells survive
# [1] = compound: C=CC(=O)N1CCC[C@@H](n2nc(-c3ccc(Oc4ccccc4)cc3)c3c(N)ncnc32)C1 [Ibrutinib] + CS(=O)(=O)CCNCc1ccc(-c2ccc3ncnc(Nc4ccc(OCc5cccc(F)c5)c(Cl)c4)c3c2)o1 [Lapatinib] (partner 2 µM)
# How it was run: (§1)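 Lung cancer cell lines in 1536-well plates got either a single drug or a fixed anchor-drug dose together with five library-drug doses (not always all listed) in √10 steps, by pin tool, on the day after seeding. Nuclei were counted after 5 days, and relative viability is the treated-to-vehicle ratio of nuclei counts. Values are medians of duplicate plates.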
# [2] = compound: C=CC(=O)N1CCC[C@@H](n2nc(-c3ccc(Oc4ccccc4)cc3)c3c(N)ncnc32)C1 [Ibrutinib] + NC(=O)Nc1cc(-c2cccc(F)c2)sc1C(=O)N[C@H]1CCCNC1 [AZD7762] (partner 0.2 µM)
# How it was run: as §1
# [3] = compound: C=CC(=O)Nc1cc(-n2c(=O)ccc3cnc4ccc(-c5ccc(NS(C)(=O)=O)cc5)cc4c32)ccc1C [BMX-IN-1] + NC(=O)Nc1cc(-c2cccc(F)c2)sc1C(=O)N[C@H]1CCCNC1 [AZD7762] (partner 0.2 µM)
# How it was run: as §1
# [4] = compound: C=CCc1cccc(/C=N/NC(=O)CN2CCN(Cc3ccccc3)CC2)c1O [PAC-1] + O=C(c1cc(Cc2n[nH]c(=O)c3ccccc23)ccc1F)N1CCN(C(=O)C2CC2)CC1 [Olaparib] (partner 8 µM)
# How it was run: as §1
Cell Line,relative viability ([1]; first compound 0.005 µM),relative viability ([1]; first compound 0.01581 µM),relative viability ([1]; first compound 0.05 µM),relative viability ([1]; first compound 0.1581 µM),relative viability ([1]; first compound 0.5 µM),relative viability ([2]; first compound 0.005 µM),relative viability ([2]; first compound 0.01581 µM),relative viability ([2]; first compound 0.05 µM),relative viability ([2]; first compound 0.1581 µM),relative viability ([2]; first compound 0.5 µM),relative viability ([3]; first compound 0.02 µM),relative viability ([3]; first compound 0.2 µM),relative viability ([3]; first compound 0.6325 µM),relative viability ([3]; first compound 2 µM),relative viability ([4]; first compound 0.02 µM),relative viability ([4]; first compound 0.06325 µM),relative viability ([4]; first compound 0.2 µM),relative viability ([4]; first compound 2 µM)
NCI-H1651,0.699,0.756,0.796,0.723,0.906,0.306,0.459,0.452,0.464,0.48,0.557,0.503,0.527,0.422,0.149,0.2,0.181,0.193
NCI-H1734,0.843,1.01,1.14,1.19,1.04,0.481,0.518,0.449,0.557,0.526,0.683,0.623,0.542,0.669,0.655,0.611,0.271,0.632
NCI-H1915,–,0.987,1.01,1.06,1.06,0.76,0.638,0.625,0.741,0.667,0.774,0.786,0.806,0.675,0.234,0.262,0.22,0.274
NCI-H1755,–,0.991,1.08,0.981,1.05,0.45,0.455,0.454,0.409,0.453,0.543,0.491,0.453,0.466,0.879,0.837,0.849,0.826
EPLC-272H,–,1.05,0.877,0.68,0.704,–,0.232,0.269,0.241,0.191,0.231,0.217,0.476,0.202,0.763,0.817,0.606,0.567
NCI-H1793,–,0.796,0.819,0.58,0.577,0.395,0.33,0.408,0.85,0.13,0.513,0.661,0.594,0.588,0.682,0.855,0.7,0.628
NCI-H358,0.403,0.466,0.475,0.406,0.43,0.404,0.349,0.282,0.515,0.29,0.448,0.504,0.491,0.486,0.581,0.827,0.569,0.37
HCC-827,0.169,0.206,0.208,0.174,0.173,0.157,0.193,0.323,0.167,0.12,0.217,0.207,0.251,0.194,0.65,0.696,0.6,0.646
NCI-H2085,0.651,0.727,0.75,0.752,0.631,0.906,0.926,0.919,0.926,0.729,1.08,1.07,0.986,0.996,0.728,0.74,0.74,0.831
LCLC-97TM1,0.69,0.913,1.41,–,0.931,0.276,0.326,0.317,0.268,0.219,0.235,0.239,0.327,0.202,0.364,0.524,–,0.338
EKVX,0.178,0.215,0.216,0.191,0.179,0.75,0.61,0.605,0.732,0.246,1.02,0.81,0.843,0.723,0.987,0.847,0.751,0.764
PC-14,0.308,0.302,0.285,0.322,0.327,0.379,0.349,0.314,0.224,0.23,0.404,0.459,0.408,0.312,0.255,0.275,0.288,0.298
NCI-H1355,–,0.975,1.07,0.92,0.963,–,0.768,0.846,0.9,0.72,0.872,0.85,0.838,0.755,0.78,0.693,0.724,0.74
NCI-H1792,0.907,0.896,0.913,0.73,0.912,–,0.693,0.6,0.636,0.515,0.896,0.79,0.866,0.885,0.305,0.383,0.0039,0.454
HARA,0.836,0.638,0.727,0.777,0.796,0.495,0.449,0.602,0.318,0.408,0.47,0.454,0.26,0.322,0.769,0.65,0.813,1.16
H3255,0.26,0.28,0.248,0.182,0.218,0.695,0.767,0.61,0.754,0.418,0.93,0.866,1.05,0.874,0.64,0.579,0.536,0.515
NCI-H1666,0.722,0.583,0.814,0.749,0.761,0.803,0.777,0.843,0.892,0.783,0.804,0.886,0.901,0.871,0.688,0.745,0.75,0.729

Cell Line,relative viability ([1]; first compound 0.005 µM),relative viability ([1]; first compound 0.01581 µM),relative viability ([1]; first compound 0.05 µM),relative viability ([1]; first compound 0.1581 µM),relative viability ([1]; first compound 0.5 µM),relative viability ([2]; first compound 0.005 µM),relative viability ([2]; first compound 0.01581 µM),relative viability ([2]; first compound 0.05 µM),relative viability ([2]; first compound 0.1581 µM),relative viability ([2]; first compound 0.5 µM),relative viability ([3]; first compound 0.02 µM),relative viability ([3]; first compound 0.2 µM),relative viability ([3]; first compound 0.6325 µM),relative viability ([3]; first compound 2 µM),relative viability ([4]; first compound 0.02 µM),relative viability ([4]; first compound 0.06325 µM),relative viability ([4]; first compound 0.2 µM),relative viability ([4]; first compound 2 µM)
NCI-H1993,0.766,0.576,0.856,–,0.764,0.39,0.732,0.739,0.751,0.557,0.907,0.926,0.706,0.724,1.12,1.16,0.684,0.961
HCC-366,1.07,0.978,1.02,0.959,1.19,0.329,0.233,0.247,0.347,0.303,0.38,0.417,0.416,0.343,0.314,0.411,0.306,0.378
EMC-BAC-2,0.827,0.864,0.858,0.909,0.899,1.19,1.1,1.1,–,1.2,1.32,1.31,1.1,1.14,0.523,0.481,0.488,0.504
NCI-H1975,0.899,0.772,0.837,0.79,0.517,0.647,0.556,0.517,0.522,0.342,0.797,0.742,0.895,0.673,0.779,0.809,0.811,0.703
NCI-H1944,0.818,0.818,0.771,0.7,0.844,0.388,0.455,0.409,0.448,0.422,0.479,0.661,0.52,0.578,0.389,0.434,0.425,0.402
NCI-H1395,1.1,1.04,1.04,0.869,1.05,0.405,0.403,0.387,0.404,0.413,0.4,0.407,0.434,0.376,0.493,0.44,0.485,0.46
NCI-H650,–,0.867,–,1,0.883,1.02,0.858,0.94,1.15,1.02,0.978,1.29,0.921,0.904,0.328,0.41,0.387,0.381
NCI-H1437,0.799,0.677,0.775,0.604,0.893,1.12,1.12,1.08,1.08,1.16,1.26,1.26,1.11,1.11,0.606,0.632,0.555,0.471
NCI-H2347,0.962,0.899,0.897,0.555,0.861,0.739,0.733,0.69,0.665,0.696,0.787,0.833,0.712,0.945,0.544,0.622,0.551,0.515
NCI-H2405,0.942,1.08,0.973,–,1.09,0.778,0.65,–,–,0.829,0.831,0.941,0.762,0.805,0.879,0.894,0.922,0.94
A-427,1.01,1.01,1.06,0.982,1.01,0.745,0.734,0.757,–,0.706,0.796,1.14,0.84,0.806,0.786,0.776,0.666,0.711
NCI-H2170,0.247,0.258,0.245,0.25,0.26,0.699,0.695,0.655,0.769,0.182,0.945,0.98,1.03,0.928,0.557,0.632,0.562,0.542
RERF-LC-KJ,0.831,0.931,0.937,0.888,0.785,0.464,0.943,0.845,0.896,0.714,1.1,0.957,1.3,1.19,0.891,0.86,0.929,0.83
LXF-289,0.918,0.903,0.932,0.88,0.923,1.22,1.07,1.06,1.1,1.15,1.25,1.18,1.22,1.27,1.07,1.03,1.05,1.03
LC-2-ad,0.938,0.577,0.972,0.911,0.968,0.905,0.801,0.861,0.786,0.599,0.982,1.09,0.924,0.867,0.704,0.712,0.35,0.635
NCI-H23,0.943,1.19,1.18,1.15,–,0.263,0.237,0.234,0.218,0.283,0.211,0.272,0.18,0.25,0.28,0.284,0.313,0.352
